Experimental data published in ChEMBL document CHEMBL2073781, “Organ distribution of multidrug resistance proteins 1, 2, and 3 (Mrp1, 2, and 3) mRNA and hepatic induction of Mrp3 by constitutive androstane receptor activators in rats” (J Pharmacol Exp Ther, 2002).

These compounds were tested against ATP-binding cassette sub-family C member 2 (Rattus norvegicus, UniProt Q63120) (assay: TP_TRANSPORTER: Branched DNA assay in vivo SD rat, kidney).
Format: functional, organism-based, Sprague-Dawley

Sequence of ATP-binding cassette sub-family C member 2 (Q63120 whole entry): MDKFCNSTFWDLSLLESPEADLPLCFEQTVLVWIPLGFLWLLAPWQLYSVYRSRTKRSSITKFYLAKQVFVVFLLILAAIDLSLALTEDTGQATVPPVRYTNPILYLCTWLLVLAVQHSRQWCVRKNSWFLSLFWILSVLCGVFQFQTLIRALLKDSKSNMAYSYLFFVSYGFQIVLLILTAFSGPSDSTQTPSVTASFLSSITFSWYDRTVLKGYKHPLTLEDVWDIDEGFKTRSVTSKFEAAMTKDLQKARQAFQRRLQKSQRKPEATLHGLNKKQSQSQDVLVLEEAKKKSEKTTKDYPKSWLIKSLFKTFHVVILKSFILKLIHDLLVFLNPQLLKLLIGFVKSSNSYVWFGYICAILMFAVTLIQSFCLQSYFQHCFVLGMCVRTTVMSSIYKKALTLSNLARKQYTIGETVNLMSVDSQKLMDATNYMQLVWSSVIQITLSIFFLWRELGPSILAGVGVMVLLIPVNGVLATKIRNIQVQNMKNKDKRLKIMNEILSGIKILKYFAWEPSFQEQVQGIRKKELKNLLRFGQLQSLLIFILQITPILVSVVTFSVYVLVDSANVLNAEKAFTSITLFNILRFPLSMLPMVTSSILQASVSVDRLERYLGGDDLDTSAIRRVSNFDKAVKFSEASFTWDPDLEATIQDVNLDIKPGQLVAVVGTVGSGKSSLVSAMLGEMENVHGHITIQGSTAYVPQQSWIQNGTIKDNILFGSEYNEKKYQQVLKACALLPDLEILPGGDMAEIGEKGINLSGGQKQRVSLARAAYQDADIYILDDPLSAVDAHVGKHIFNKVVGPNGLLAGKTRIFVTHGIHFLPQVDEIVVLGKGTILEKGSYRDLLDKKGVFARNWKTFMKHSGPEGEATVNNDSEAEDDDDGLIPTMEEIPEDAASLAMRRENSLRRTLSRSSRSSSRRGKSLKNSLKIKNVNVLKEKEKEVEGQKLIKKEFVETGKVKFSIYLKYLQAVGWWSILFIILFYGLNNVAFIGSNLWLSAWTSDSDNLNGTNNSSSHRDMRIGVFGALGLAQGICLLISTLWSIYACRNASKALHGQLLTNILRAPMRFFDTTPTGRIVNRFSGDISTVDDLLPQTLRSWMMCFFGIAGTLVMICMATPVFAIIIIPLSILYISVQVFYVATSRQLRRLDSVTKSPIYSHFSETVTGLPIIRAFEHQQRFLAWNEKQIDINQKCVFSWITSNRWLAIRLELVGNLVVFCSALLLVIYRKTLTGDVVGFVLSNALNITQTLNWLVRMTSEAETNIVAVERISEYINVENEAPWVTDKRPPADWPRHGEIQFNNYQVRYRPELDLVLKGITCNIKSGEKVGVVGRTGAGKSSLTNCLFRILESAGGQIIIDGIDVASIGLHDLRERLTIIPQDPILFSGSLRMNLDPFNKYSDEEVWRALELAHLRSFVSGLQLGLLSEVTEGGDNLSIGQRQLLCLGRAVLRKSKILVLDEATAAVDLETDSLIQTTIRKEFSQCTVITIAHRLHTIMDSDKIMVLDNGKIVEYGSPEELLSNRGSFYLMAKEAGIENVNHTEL

Row | Activity | Structure (SMILES)
1 | inducer [+] | O=c1cc(-c2ccccc2)oc2ccc3ccccc3c12 [BETA-NAPHTHOFLAVONE]
2 | inducer [+] | OCc1c[nH]c2ccccc12 [INDOLE-3-CARBINOL]
3 | inducer [+] | CN(N=O)C(=O)N[C@@H](C=O)[C@@H](O)[C@H](O)[C@H](O)CO [STREPTOZOCIN]

Row | Structure (SMILES) | Activity
4 | CCCC[C@@H](CC)COC(=O)c1ccccc1C(=O)OC[C@@H](CC)CCCC [BIS(2-ETHYLHEXYL)PHTHALATE] | inducer [+]
